24 compounds from patent US8324250B2 (Hoffmann-La Roche Inc., priority 2009, dated 2012) can be followed below.

For the assay, the target named is T1, recombinant human NK3 receptor (Homo sapiens, UniProt P29371).
T1 construct: expressed in transfected cells; host or cells: HEK293 cells (transient expression), membranes
T1 sequence (P29371 1-465): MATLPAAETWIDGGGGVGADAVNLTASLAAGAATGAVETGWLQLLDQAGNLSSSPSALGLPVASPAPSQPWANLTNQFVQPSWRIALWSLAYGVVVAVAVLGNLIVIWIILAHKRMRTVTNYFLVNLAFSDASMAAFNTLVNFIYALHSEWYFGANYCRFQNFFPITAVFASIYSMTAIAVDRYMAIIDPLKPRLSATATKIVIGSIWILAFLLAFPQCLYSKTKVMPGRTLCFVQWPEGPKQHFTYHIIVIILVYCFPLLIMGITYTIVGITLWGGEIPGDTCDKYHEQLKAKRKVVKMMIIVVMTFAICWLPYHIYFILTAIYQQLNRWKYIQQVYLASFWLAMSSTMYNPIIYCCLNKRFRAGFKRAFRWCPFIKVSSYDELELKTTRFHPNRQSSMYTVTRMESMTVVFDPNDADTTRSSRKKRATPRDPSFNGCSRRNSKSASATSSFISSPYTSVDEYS
Description: [3H]SR142801 competition binding assay. The settings on record: membranes from HEK293 cells transiently expressing recombinant human NK3 receptor; [3H]SR142801 radioligand; 75 min at RT; Ki by Cheng-Prussoff; read-out: Data Ki (hNK-3 receptor affinity). The protocol: [^3H]SR142801 Competition Binding Assay
hNK3 receptor binding experiment were performed using [^3H]SR142801 (Catalog No. TRK1035, specific activity: 74.0 Ci/mmol, Amersham, GE Healthcare UK limited, Buckinghamshire, UK) and membrane isolated from HEK293 cells transiently expressing recombinant human NK3 receptor. After thawing, the membrane homogenates were centrifuged at 48,000×g for 10 min at 4° C., the pellets were resuspended in the 50 mM Tris-HCl, 4 mM MnCl2, 1 μM phosphoramidon, 0.1% BSA binding buffer at pH 7.4 to a final assay concentration of 5 μg protein/well. […] At the end of the incubation, membranes were filtered onto unitfilter (96-well white microplate with bonded GF/C filter preincubated 1 h in 0.3% PEI+0.3% BSA, Packard BioScience, Meriden, Conn.) with a Filtermate 196 harvester (Packard BioScience) and washed 4 times with ice-cold 50 mM Tris-HCl, pH 7.4 buffer. Nonspecific binding was measured in the presence of 10 μM SB222200 for both radioligands. The radioactivity on the filter was counted (5 min) on a Packard Top-count microplate scintillation counter with quenching correction after addition of 45 μl of microscint 40 (Can berra Packard S. A., Zurich, Switzerland) and shaking for 1 h. Inhibition curves were fitted according to the Hill equation: y=100/(1+(x/IC50)^nH), where nH=slope factor using Excel-fit 4 software (Microsoft). IC50 values were derived from the inhibition curve and the affinity constant (Ki) values were calculated using the Cheng-Prussoff equation Ki═IC50/(1+[L]/KD) where [L] is the concentration of radioligand and KD is its dissociation constant at the receptor, derived from the saturation isotherm. All experiments were performed in duplicate and the mean±standard error (SEM) of the individual Ki values was calculated.
As usually defined, the Ki is a dissociation constant, usually derived from enzyme kinetics or from competition with a known ligand. With `C[C@H](NC(=O)C1(c2ccccc2)CCN(C(=O)c2ccc(-c3ccc(F)cc3)cc2)CC1)c1ccc(Cl)cc1` [Example 102, 1-(4′-Fluoro-biphenyl-4-carbonyl)-4-phenyl-piperidine-4-carboxylic acid [(S)-1-(4-chloro-phenyl)-ethyl]-amide], the Ki came out at 17.2 nM.
Under `Cc1noc(-c2ccc(C(=O)N3CCC(C(=O)N[C@@H](c4ccc(F)cc4)C(F)(F)F)(c4ccc(F)cc4)CC3)cc2)n1` (racemic) [Example 202, 4-(4-Fluoro-phenyl)-1-[4-(3-methyl-[1,2,4]oxadiazol-5-yl)-benzoyl]-piperidine-4-carboxylic acid [(SR)-2,2,2-trifluoro-1-(4-fluoro-phenyl)-ethyl]-amide] stands 6.8 nM; under `CC(C)C(NC(=O)C1(c2ccc(F)cc2)CCN(C(=O)c2ccc(-c3ccc(F)cc3)cc2)CC1)c1ccccc1` (stereo not drawn) [Example 143, 1-(4′-Fluoro-biphenyl-4-carbonyl)-4-(4-fluoro-phenyl)-piperidine-4-carboxylic acid (2-methyl-1-phenyl-propyl)-amide], 6.9 nM; under `C[C@H](NC(=O)C1(c2ccccc2)CCN(C(=O)c2ccc(N3CCCCC3=O)cc2)CC1)c1ccccc1` [Example 63], 44.9 nM.
Under `Cc1nc(-c2ccc(C(=O)N3CCC(C(=O)N[C@@H](C)c4cccc(F)c4)(c4ccc(F)cc4)CC3)cc2)no1` [Example 167, 4-(4-Fluoro-phenyl)-1-[4-(5-methyl-[1,2,4]oxadiazol-3-yl)-benzoyl]-piperidine-4-carboxylic acid [(S)-1-(3-fluoro-phenyl)-ethyl]-amide] stands 17 nM; under `C[C@H](NC(=O)C1(c2ccccc2)CCN(C(=O)c2ccc(-c3cccnc3)cc2)CC1)c1ccccc1` [Example 53, 4-Phenyl-1-(4-pyridin-3-yl-benzoyl)-piperidine-4-carboxylic acid ((S)-1-phenyl-ethyl)-amide], 23.2 nM.
As for `C[C@H](NC(=O)C1(c2ccccc2)CCN(C(=O)c2ccc(-c3ccccc3)nc2)CC1)c1ccccc1` [Example 56], the Ki is 20.6 nM.
For the compound `O=C(c1ccc(-c2ccc(F)cc2)cc1)N1CCC(C(=O)NCC2CCCCC2)(c2ccc(F)cc2)CC1` [Example 142, 1-(4′-Fluoro-biphenyl-4-carbonyl)-4-(4-fluoro-phenyl)-piperidine-4-carboxylic acid cyclohexylmethyl-amide], the Ki was 38.2 nM.
Under `CCc1nc(-c2ccc(C(=O)N3CCC(C(=O)N[C@@H](C)c4ccccc4)(c4ccccc4)CC3)cc2)no1` [Example 71, 1-[4-(5-Ethyl-[1,2,4]oxa-diazol-3-yl)-benzoyl]-4-phenyl-piperidine-4-carboxylic acid ((S)-1-phenyl-ethyl)-amide] stands 28.4 nM; under `CC(=O)c1cccc(-c2ccc(C(=O)N3CCC(C(=O)N[C@@H](C)c4ccccc4)(c4ccccc4)CC3)cc2)c1` [Example 60, 1-(3′-Acetyl-biphenyl-4-carbonyl)-4-phenyl-piperidine-4-carboxylic acid ((S)-1-phenyl-ethyl)-amide], 31.5 nM; under `Cc1nc(-c2ccc(C(=O)N3CCC(C(=O)NC4(c5ccc(F)cc5)CC4)(c4ccc(F)cc4)CC3)cc2)no1` [Example 163, 4-(4-Fluoro-phenyl)-1-[4-(5-methyl-[1,2,4]oxadiazol-3-yl)-benzoyl]-piperidine-4-carboxylic acid [1-(4-fluoro-phenyl)-cyclopropyl]-amide], 41 nM.
Under `C[C@H](NC(=O)C1(c2ccccc2)CCN(C(=O)c2ccc(-n3cncn3)cc2)CC1)c1ccccc1` [Example 34, 4-Phenyl-1-(4-[1,2,4]triazo 1-1-yl-benzoyl)-piperidine-4-carboxylic acid ((S)-1-phenyl-ethyl)-amide] stands 98.5 nM; under `CC(C)C(NC(=O)C1(c2ccc(F)cc2)CCN(C(=O)N2CCN(c3ccc(F)cc3)CC2)CC1)c1ccc(F)cc1` (stereo not drawn) [Example 175, 4-(4-Fluoro-phenyl)-1-[4-(4-fluoro-phenyl)-piperazine-1-carbonyl]-piperidine-4-carboxylic acid [1-(4-fluoro-phenyl)-2-methyl-propyl]-amide], 48 nM; under `C[C@H](NC(=O)C1(c2ccc(F)cc2)CCN(C(=O)N2CCN(c3ccc(F)cc3)CC2)CC1)c1ccc(F)cc1` [Example 179, 4-(4-Fluoro-phenyl)-1-[4-(fluoro-phenyl)-piperazine-1-carbonyl]-piperidine-4-carboxylic acid [(S)-1-(4-fluoro-phenyl)-ethyl]-amide], 18 nM.
Under `C[C@H](NC(=O)C1(c2ccccc2)CCN(C(=O)N2CCN(c3cnccn3)CC2)CC1)c1ccccc1` [Example 209, 4-Phenyl-1-(2,3,5,6-tetrahydro-[1,2′]bipyrazinyl-4-carbonyl)-piperidine-4-carboxylic acid ((S)-1-phenyl-ethyl)-amide] stands 58.4 nM.
Regarding `C[C@H](NC(=O)C1(c2ccc(F)cc2)CCN(C(=O)c2ccc(N3CCS(=O)(=O)CC3)cc2)CC1)c1ccc(F)cc1` [Example 1, 1-[4-(1,1-Dioxo-1λ^6-thiomorpholin-4-yl)-benzoyl]-4-(4-fluoro-phenyl)-piperidine-4-carboxylic acid [(S)-1-(4-fluoro-phenyl)-ethyl]-amide], the Ki turned out to be 29.3 nM.
Turning to `Cc1noc(-c2ccc(C(=O)N3CCC(C(=O)NC4(c5ccc(F)cc5)CC4)(c4ccc(F)cc4)CC3)cc2)n1` [Example 157, 4-(4-Fluoro-phenyl)-1-[4-(3-methyl-[1,2,4]oxadiazol-5-yl)-benzoyl]-piperidine-4-carboxylic acid [1-(4-fluoro-phenyl)-cyclopropyl]-amide], the Ki is 9.4 nM.
Consider `Cc1noc(-c2ccc(C(=O)N3CCC(C(=O)N[C@@H](C)c4ccccc4)(c4ccccc4)CC3)cc2)n1` [Example 43, 1-[4-(3-Methyl-[1,2,4]oxa-diazol-5-yl)-benzoyl]-4-phenyl-piperidine 4-carboxylic acid ((S)-1-phenyl-ethyl)-amide], for which the Ki worked out at 3.2 nM.
Consider `C[C@H](NC(=O)C1(c2ccccc2)CCN(C(=O)c2ccc(N3CCS(=O)(=O)CC3)nc2)CC1)c1ccccc1` [Example 98, 1-[6-(1,1-Dioxo-1λ6-thiomor-pholin-4-yl)-pyridine-3-carbonyl]-4-phenyl-piperidine-4-carboxylic acid ((S)-1-phenyl-ethyl)-amide], for which the Ki came out at 33.6 nM.
As for `Cc1noc(-c2ccc(C(=O)N3CCC(C(=O)N[C@@H](C)c4ccc(C(F)(F)F)cc4)(c4ccccc4)CC3)cc2)n1` [Example 114, 1-[4-(3-Methyl-[1,2,4]oxadiazol-5-yl)-benzoyl]-4-phenyl-piperidine-4-carboxylic acid [(S)-1-(4-trifluoromethyl-phenyl)-ethyl]-amide], the Ki turned out to be 90.5 nM.
The same measure for `C[C@H](NC(=O)C1(c2ccccc2)CCN(C(=O)c2ccc(-c3ccc(C(F)(F)F)cc3)cc2)CC1)c1ccccc1` [Example 5, 4-Phenyl-1-(4′-trifluoromethyl-biphenyl-4-carbonyl)-piperidine-4-carboxylic acid ((S)-1-phenyl-ethyl)-amide]: 23.9 nM; for `Cc1noc(-c2ccc(C(=O)N3CCC(C(=O)NC(c4ccc(F)cc4)C(F)(F)F)(c4ccc(F)cc4)CC3)cc2)n1` (stereo not drawn) [Example 200, 4-(4-Fluoro-phenyl)-1-[4-(3-methyl-[1,2,4]oxadiazol-5-yl)-benzoyl]-piperidine-4-carboxylic acid [2,2,2-trifluoro-1-(4-fluoro-phenyl)-ethyl]-amide]: 15 nM.
Regarding `CC(=O)c1ccc(N2CCN(C(=O)N3CCC(C(=O)N[C@@H](C)c4ccccc4)(c4ccccc4)CC3)CC2)cc1` [Example 207, 1-[4-(4-Acetyl-phenyl)-piperazine-1-carbonyl]-4-phenyl-piperidine-4-carboxylic acid ((S)-1-phenyl-ethyl)-amide], the Ki was 36.3 nM.
Consider `C[C@H](NC(=O)C1(c2ccccc2)CCN(C(=O)c2cnc(-c3ccccc3)nc2)CC1)c1ccccc1` [Example 52, 4-Phenyl-1-(2-phenyl-pyrimidine-5-carbonyl)-piperidine-4-carboxylic acid ((S)-1-phenyl-ethyl)-amide], for which the Ki worked out at 24.1 nM.
